# US20040033902A1, “Diphenyl ehter induction systemic resistance in plants” (priority 2002, published 2004)
# How the values were obtained:
# [1] = test system: snapped cotyledons of Williams variety soybean; experiment: Snapped cotyledon assay, isoflavone and glyceollin induction, HPLC (Example 4); assay type: cell-based; details: 7 day old Williams soybean, average of two experiments; for Glyceollin Induction: 48 h, tested 10 uM to 1 mM alone and with 30 ug/ml glucan elicitor from Phytophthora sojae, concentration not given; for Total Isoflavone Induction: 48 h constant light, tested 10 uM to 1 mM, concentration of the printed value not stated, standard error less than 15%
# Experimental: The snapped cotyledon assay is a minimal wound assay used to investigate the effects of test compounds in a non-primed background. The assay is performed by snapping cotyledons in two and placing the petiole side down in 0.5% water agar. Ten snapped cotyledons are used per treatment, and the subepidermal cells exposed by snapping are treated with glucan defense elicitor and/or the effector (i.e., diphenyl ether) being examined. The cotyledons are incubated in the light for 48 h as in the cut cotyledon assay. Both proximal (first cell layer) and distal (second and third cell layers) are harvested for analysis by HPLC (see below). Full details of this assay can be found in the publication: Graham, T. L. and Graham, M. Y. 1996. Signaling in soybean phenylpropanoid responses: dissection of primary, secondary and conditioning effects of light, wounding and elicitor treatments. Plant Physiol. 110:1123-1133.
# The snapped cotyledon assay is “naive.” That is, it is not pre-disposed or primed for competency for the elicitation of phytoalexin glyceollin in response to the glucan elicitor. Thus, treatment with the glucan elicitor induces the formation of the isoflavones daidzein and genistein, but very little glyceollin. This is an excellent assay to study the effects of a chemical treatment on isoflavone metabolism by itself or in combination with the glucan. In the absence of the glucan, it gives an excellent picture of the effects of the compound alone on isoflavone metabolism. In the presence of the glucan, it tells us if the test compound can induce elicitation competency for the glyceollin response to the glucan.
# High performance liquid chromatography (HPLC) is the method of choice for determining the levels of isoflavone defense compounds in soybean. With a single HPLC analysis, one gets a complete and quantitative profile of up to 50 or more aromatic compounds, including all the isoflavones and their conjugates and the phytoalexins, including glyceollin. As little as 20 mg of plant tissue is needed and the method can be readily applied to cotyledon, leaf or any soybean tissue. This analytical method allows us to determine the nmoles/g of each metabolite, which can then readily be processed to compare the percent increase or decrease of a given metabolite in comparison to either water or glucan-treated control tissues. Routinely, tissues are extracted in 80% ethanol and subjected to water/acetonitrile gradient elution from a C18 reverse phase HPLC column. Full details of this procedure can be found in the publication: Graham, T. L. 1991. A Rapid, High Resolution High Performance Liquid Chromatography Profiling Procedure for Plant and Microbial Aromatic Secondary Metabolites. Plant Physiol. 95:584-593. […]
# [2] = test system: cut cotyledons (Williams cotyledons); experiment: Cut cotyledon assay, isoflavones (Williams cotyledons); assay type: cell-based, soybean; details: 50-500 uM
# Experimental: The cut cotyledon assay is used to investigate both the ability of a compound (effector) to activate basal elicitation competency in plants, and to evaluate the ability of a secondary compound (elicitor) to enhance glyceollin elicitation competency in plants in which the isoflavone pools were “loaded” by the action of the effector.
# The level of isoflavones in the cotyledon tissues are measured after the addition of different diphenyl ethers to determine the effectiveness of each in inducing the basal production of isoflavones in cotyledon tissues (effector studies). In the elicitor studies, the addition of diphenyl ether first “primes” the cut cotyledon. […] Thus, the ability of a compound to enhance glyceollin elicitation competency by “loading” the isoflavone pools can also be measured.
# Cotyledons from 7-8 day old soybean seedlings are removed from the plant and cut on the lower surface to expose subepidermal tissues. […] Tissues are analyzed by HPLC as noted below. […]
# High performance liquid chromatography (HPLC) is the method of choice for determining the levels of isoflavone defense compounds in soybean. With a single HPLC analysis, one gets a complete and quantitative profile of up to 50 or more aromatic compounds, including all the isoflavones and their conjugates and the phytoalexins, including glyceollin. […]
Structure (SMILES),Glyceollin Induction [1],Total Isoflavone Induction [1],range of increase of isoflavones over the concentration range [2]
"O=C(O)c1cc(Oc2ccc(C(F)(F)F)cc2Cl)ccc1[N+](=O)[O-] [Acifluorfen, acifluorfen]",+122%,+56%,
"CS(=O)(=O)NC(=O)c1cc(Oc2ccc(C(F)(F)F)cc2Cl)ccc1[N+](=O)[O-] [Fomesafen, fomesafen]",+233%,+85%,
N[C@@H](Cc1cc(I)c(Oc2cc(I)c(O)c(I)c2)c(I)c1)C(=O)O [thyroxine],,,20-40%
